The values below come from US12202835B2, “Substituted aromatic ring-linked dioxinoquinazolines and dioxinoquinolines as kinase inhibitors” (BEIJING SCITECH-MQ PHARMACEUTICALS LIMITED, priority 2018, dated 2025).

For orientation: IC50 means the concentration needed to halve the response being measured.

The target in assay [1] is c-MET kinase (Homo sapiens (Human), UniProt P08581). Briefly: Assay of small molecular compounds for inhibiting the activity of c-MET kinase (LANCE TR-FRET). Type of assay: biochemical. The note with it: read-out: CMET IC50. In a few lines:
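Eleven final concentrations from 2500 nM down to 0.042 nM, in 4% DMSO, were tested against human c-MET (2× stock 2 nM), with compound and enzyme premixed for 5 min. The phosphorylation reaction used 4× stock of 400 nM ULight-JAK-1 peptide and 40 μM ATP for 60 min at room temperature, then stop and detection steps. TR-FRET percent inhibition against positive and negative controls gave the IC50.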
For orientation: Time-resolved FRET reads energy transfer from a long-lived donor to a nearby acceptor.

Assay [2] concerns the target MER kinase (Homo sapiens (Human), UniProt Q12866). Kind of assay: Assay of small molecular compounds for inhibiting the activity of MER kinase (LANCE TR-FRET). The assay is classed as biochemical. The procedure, abridged: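 LANCE TR-FRET readout of ULight-poly GT phosphorylation by MER kinase; compound final range 0.042-2500 nM, 3-fold steps, 5 min enzyme preincubation. Reaction 60 min at room temperature in the dark with substrate/ATP (4× at 200 nM/20 μM), 1% DMSO, then stopped and developed 60 min; IC50 by curve fit.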

Assay [3] concerns Ba/F3 LMNA-NTRK1 cells. Briefly: Assay for inhibiting the proliferation of Ba/F3 LMNA-NTRK1 cells (CCK-8). Type of assay: cell-based. In a few lines: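 Viability was read as absorbance at 450 nm following 1–2 h CCK-8 incubation at 37 °C, relative to control and blank wells.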

Read-outs that look alike come from different tables or passages of the source.

Sequence of c-MET kinase (P08581 25-1390): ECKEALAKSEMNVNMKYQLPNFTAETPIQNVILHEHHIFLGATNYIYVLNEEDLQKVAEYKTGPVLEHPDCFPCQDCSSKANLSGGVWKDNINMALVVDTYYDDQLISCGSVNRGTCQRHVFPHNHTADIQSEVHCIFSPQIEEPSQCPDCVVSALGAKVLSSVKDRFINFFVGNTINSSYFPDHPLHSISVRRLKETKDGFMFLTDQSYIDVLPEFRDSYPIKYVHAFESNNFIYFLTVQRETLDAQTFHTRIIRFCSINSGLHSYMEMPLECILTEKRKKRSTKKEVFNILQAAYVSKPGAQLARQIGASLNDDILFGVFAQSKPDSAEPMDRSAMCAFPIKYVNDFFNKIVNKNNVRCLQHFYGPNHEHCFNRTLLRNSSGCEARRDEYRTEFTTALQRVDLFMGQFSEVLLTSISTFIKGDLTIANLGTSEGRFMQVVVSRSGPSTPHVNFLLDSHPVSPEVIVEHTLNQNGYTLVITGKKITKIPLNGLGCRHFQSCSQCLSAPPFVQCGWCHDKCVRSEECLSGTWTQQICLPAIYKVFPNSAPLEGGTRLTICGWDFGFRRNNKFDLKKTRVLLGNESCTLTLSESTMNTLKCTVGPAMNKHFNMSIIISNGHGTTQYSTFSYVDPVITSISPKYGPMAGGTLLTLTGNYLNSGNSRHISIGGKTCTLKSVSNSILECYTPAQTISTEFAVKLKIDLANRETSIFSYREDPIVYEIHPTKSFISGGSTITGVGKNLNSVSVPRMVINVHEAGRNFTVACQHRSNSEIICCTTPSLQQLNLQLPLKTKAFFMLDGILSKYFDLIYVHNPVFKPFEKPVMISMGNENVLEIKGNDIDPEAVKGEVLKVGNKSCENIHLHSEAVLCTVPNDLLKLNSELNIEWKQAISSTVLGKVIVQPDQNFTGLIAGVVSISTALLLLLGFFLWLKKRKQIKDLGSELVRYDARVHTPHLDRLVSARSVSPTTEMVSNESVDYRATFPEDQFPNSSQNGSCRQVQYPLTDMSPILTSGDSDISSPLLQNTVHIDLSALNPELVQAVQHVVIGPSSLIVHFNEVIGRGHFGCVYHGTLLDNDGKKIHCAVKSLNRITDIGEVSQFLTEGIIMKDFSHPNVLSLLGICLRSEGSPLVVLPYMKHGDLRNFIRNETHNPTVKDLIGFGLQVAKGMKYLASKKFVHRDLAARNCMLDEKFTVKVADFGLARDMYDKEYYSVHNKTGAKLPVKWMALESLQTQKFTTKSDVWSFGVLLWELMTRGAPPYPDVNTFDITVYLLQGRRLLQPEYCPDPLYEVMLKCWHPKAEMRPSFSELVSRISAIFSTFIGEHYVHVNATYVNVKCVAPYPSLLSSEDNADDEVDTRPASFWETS
Sequence of MER kinase (Q12866 21-999): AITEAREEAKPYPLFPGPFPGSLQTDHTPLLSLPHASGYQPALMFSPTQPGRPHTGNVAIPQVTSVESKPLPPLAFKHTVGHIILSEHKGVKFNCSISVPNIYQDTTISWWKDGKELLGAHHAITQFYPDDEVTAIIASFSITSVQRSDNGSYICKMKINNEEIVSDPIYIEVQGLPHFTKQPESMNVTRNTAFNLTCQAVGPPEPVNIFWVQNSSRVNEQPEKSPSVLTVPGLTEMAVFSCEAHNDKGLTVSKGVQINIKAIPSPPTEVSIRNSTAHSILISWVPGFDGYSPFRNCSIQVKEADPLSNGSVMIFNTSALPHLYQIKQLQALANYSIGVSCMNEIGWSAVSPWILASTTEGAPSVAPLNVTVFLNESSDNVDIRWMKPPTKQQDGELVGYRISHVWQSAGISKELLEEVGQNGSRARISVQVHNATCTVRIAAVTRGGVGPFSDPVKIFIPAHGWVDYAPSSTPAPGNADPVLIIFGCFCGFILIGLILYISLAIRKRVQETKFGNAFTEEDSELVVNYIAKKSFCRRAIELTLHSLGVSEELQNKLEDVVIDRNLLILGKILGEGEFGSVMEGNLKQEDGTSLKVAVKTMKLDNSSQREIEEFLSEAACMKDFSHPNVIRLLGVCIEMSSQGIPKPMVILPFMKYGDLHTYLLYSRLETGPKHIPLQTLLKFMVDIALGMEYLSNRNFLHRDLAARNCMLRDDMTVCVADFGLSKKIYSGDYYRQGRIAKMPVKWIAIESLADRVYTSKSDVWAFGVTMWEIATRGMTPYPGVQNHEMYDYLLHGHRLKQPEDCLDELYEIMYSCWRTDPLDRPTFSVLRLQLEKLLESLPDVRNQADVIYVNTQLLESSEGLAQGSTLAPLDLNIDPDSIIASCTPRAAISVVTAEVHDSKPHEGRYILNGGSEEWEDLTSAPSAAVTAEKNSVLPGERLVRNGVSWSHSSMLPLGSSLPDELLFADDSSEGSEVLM

`COc1cc2nccc(Oc3ccc(NC(=O)c4cn(C)c(=O)n(-c5ccc(F)cc5)c4=O)cc3F)c2c2c1OCCO2` [Example 13, N-(3-fluoro-4-((5-methoxy-2,3-dihydro-[1,4]dioxino[2,3-f]quinolin-10-yl)oxy)phenyl)-3-(4-fluorophenyl)-1-methyl-2,4-dioxo-1,2,3,4-tetrahydropyrimidine-5-carboxamide]: the IC50 in assay [1] is ≤ 50 nM; in assay [2] it was ≤ 50 nM; in assay [3] (Mus musculus, BaF3) it was < 50 nM.
Consider `CCOc1ccn(-c2ccc(F)cc2)c(=O)c1C(=O)Nc1ccc(Oc2ccnc3cc(OCCCN4CCOCC4)c4c(c23)OCCO4)c(F)c1` [Example 22, N-(3-fluoro-4-((5-(3-morpholinopropoxy)-2,3-dihydro-[1,4]dioxino[2,3-f]quinolin-10-yl)oxy)phenyl)-1-(4-fluorophenyl)-4-ethoxy-2-oxo-1,2-dihydropyridine-3-carboxamide], for which the IC50 is ≤ 50 nM in assay [1]; ≤ 50 nM in assay [2]; < 50 nM in assay [3] (Mus musculus, BaF3).
For `COc1cc2ncnc(Oc3ccc(NC(=O)c4cn(C)c(=O)n(-c5ccc(F)cc5)c4=O)cc3F)c2c2c1OCCO2` [Example 29, N-(3-fluoro-4-((5-methoxy-2,3-dihydro-[1,4]dioxino[2,3-f]quinazolin-10-yl)oxy)phenyl)-3-(4-fluorophenyl)-1-methyl-2,4-dioxo-1,2,3,4-tetrahydropyrimidine-5-carboxamide], the IC50 is ≤ 50 nM in assay [1]; ≤ 50 nM in assay [2]; < 50 nM in assay [3] (Mus musculus, BaF3).
On to `CC(C)n1cc(C(=O)Nc2ccc(Oc3ccnc4cc(OCCCN5CCOCC5)c5c(c34)OCCO5)c(Cl)c2)c(=O)n(-c2ccc(F)cc2)c1=O` [Example 97, N-(3-chloro-4-((5-(3-morpholinopropoxy)-2,3-dihydro-[1,4]dioxino[2,3-f]quinolin-10-yl)oxy)phenyl)-3-(4-fluorophenyl)-1-isopropyl-2,4-dioxo-1,2,3,4-tetrahydropyrimidine-5-carboxamide], for which the IC50 in assay [1] was 50 to 500 nM; in assay [2], ≤ 50 nM; in assay [3] (Mus musculus, BaF3) it was < 50 nM.
For `CCOc1ccn(-c2ccc(F)cc2)c(=O)c1C(=O)Nc1ccc(Oc2ncnc3cc(OCCCN4CCOCC4)c4c(c23)OCCO4)c(F)c1` [Example 6, N-(3-fluoro-4-((5-(3-morpholinopropoxy)-2,3-dihydro-[1,4]dioxino[2,3-f]quinazolin-10-yl)oxy)phenyl)-1-(4-fluorophenyl)-4-ethoxy-2-oxo-1,2-dihydropyridine-3-carboxamide] the same measures were ≤ 50 nM, ≤ 50 nM and < 50 nM.
`Cn1cc(C(=O)Nc2ccc(Oc3ccnc4cc(OCCCN5CCOCC5)c5c(c34)OCCO5)c(F)c2)c(=O)n(-c2ccc(F)cc2)c1=O` [Example 15, N-(3-fluoro-4-((5-(3-morpholinopropoxy)-2,3-dihydro-[1,4]dioxino[2,3-f]quinolin-10-yl)oxy)phenyl)-3-(4-fluorophenyl)-1-methyl-2,4-dioxo-1,2,3,4-tetrahydropyrimidine-5-carboxamide]: the IC50 in assay [1] is ≤ 50 nM; in assay [2], ≤ 50 nM; in assay [3] (Mus musculus, BaF3), < 50 nM.
Take `CC(C)n1cc(C(=O)Nc2ccc(Oc3ccnc4cc(OCCCN(C)C5CCC5)c5c(c34)OCCO5)c(F)c2)c(=O)n(-c2ccc(F)cc2)c1=O` [Example 96, N-(3-fluoro-4-((5-(3-((cyclobutyl)(methyl)amino)propoxy)-2,3-dihydro-[1,4]dioxino[2,3-f]quinolin-10-yl)oxy)phenyl)-3-(4-fluorophenyl)-1-isopropyl-2,4-dioxo-1,2,3,4-tetrahydropyrimidine-5-carboxamide]: the IC50 in assay [1] is ≤ 50 nM; in assay [2], ≤ 50 nM; in assay [3] (Mus musculus, BaF3) it was < 50 nM.
Take `Cn1cc(C(=O)Nc2ccc(Oc3ccnc4cc(OCCCN5CCCCC5)c5c(c34)OCCO5)cc2Cl)c(=O)n(-c2ccc(F)cc2)c1=O` [Example 137, N-(2-chloro-4-((5-((3-piperidin-1-yl)propoxy)-2,3-dihydro-[1,4]dioxino[2,3-f]quinolin-10-yl)oxy)phenyl)-3-(4-fluorophenyl)-1-methyl-2,4-dioxo-1,2,3,4-tetrahydropyrimidine-5-carboxamide]: the IC50 in assay [1] is ≤ 50 nM; in assay [2], ≤ 50 nM; in assay [3] (Mus musculus, BaF3), < 50 nM.
As for `COc1cc2nccc(Oc3ccc(NC(=O)c4cccn(-c5ccc(F)cc5)c4=O)cc3F)c2c2c1OCCO2` [Example 17, N-(3-fluoro-4-((5-methoxy-2,3-dihydro-[1,4]dioxino[2,3-f]quinolin-10-yl)oxy)phenyl)-1-(4-fluorophenyl)-2-oxo-1,2-dihydropyridine-3-carboxamide], the IC50 in assay [1] is ≤ 50 nM; in assay [2], ≤ 50 nM; in assay [3] (Mus musculus, BaF3), < 50 nM.
In the case of `CC(C)(O)COc1cc2nccc(Oc3ccc(NC(=O)c4cccn(-c5ccc(F)cc5)c4=O)c(Cl)c3)c2c2c1OCCO2` [Example 139, N-(2-chloro-4-((5-(2-hydroxy-2-methylpropoxy)-2,3-dihydro-[1,4]dioxino[2,3-f]quinolin-10-yl)oxy)phenyl)-1-(4-fluorophenyl)-2-oxo-1,2-dihydropyridine-3-carboxamide], the IC50 was ≤ 50 nM in assay [1]; ≤ 50 nM in assay [2]; < 50 nM in assay [3] (Mus musculus, BaF3).
Consider `CC(C)n1cc(C(=O)Nc2ccc(Oc3ccnc4cc(OCCCN5CCOCC5)c5c(c34)OCCO5)c(F)c2)c(=O)n(-c2ccc(F)cc2)c1=O` [Example 16, N-(3-fluoro-4-((5-(3-morpholinopropoxy)-2,3-dihydro-[1,4]dioxino[2,3-f]quinolin-10-yl)oxy)phenyl)-3-(4-fluorophenyl)-1-isopropyl-2,4-dioxo-1,2,3,4-tetrahydropyrimidine-5-carboxamide], for which the IC50 in assay [1] is ≤ 50 nM; in assay [2], ≤ 50 nM; in assay [3] (Mus musculus, BaF3) it was < 50 nM.
For the compound `CCOc1ccn(-c2ccc(Cl)cc2)c(=O)c1C(=O)Nc1ccc(Oc2ccnc3cc(OC)c4c(c23)OCCO4)c(F)c1` [Example 113, N-(3-fluoro-4-((5-methoxy-2,3-dihydro-[1,4]dioxino[2,3-f]quinolin-10-yl)oxy)phenyl)-2-oxo-4-ethoxy-1-(4-chlorophenyl)-1,2-dihydropyridin-3-carboxamide], the IC50 is ≤ 50 nM in assay [1]; ≤ 50 nM in assay [2]; < 50 nM in assay [3] (Mus musculus, BaF3).
As to `CCOc1ccn(-c2ccc(F)cc2)c(=O)c1C(=O)Nc1cc(F)c(Oc2ccnc3cc(OC)c4c(c23)OCCO4)cc1Cl` [Example 115, N-(2-chloro-5-fluoro-4-((5-methoxy-2,3-dihydro-[1,4]dioxino[2,3-f]quinolin-10-yl)oxy)phenyl)-4-ethoxy-2-oxo-1-(4-fluorophenyl)-1,2-dihydropyridin-3-carboxamide], the IC50 in assay [1] was ≤ 50 nM; in assay [2], ≤ 50 nM; in assay [3] (Mus musculus, BaF3), < 50 nM.
In the case of `CCOc1ccn(-c2ccc(F)cc2)c(=O)c1C(=O)Nc1ccc(Oc2ccnc3cc(OC)c4c(c23)OCCO4)cc1Cl` [Example 126, N-(2-chloro-4-((5-methoxy-2,3-dihydro-[1,4]dioxino[2,3-f]quinolin-10-yl)oxy)phenyl)-1-(4-fluorophenyl)-4-ethoxy-2-oxo-1,2-dihydropyridine-3-carboxamide], the IC50 in assay [1] was ≤ 50 nM; in assay [2], ≤ 50 nM; in assay [3] (Mus musculus, BaF3) it was < 50 nM.
In the case of `COc1cc2nccc(Oc3cc(C)c(NC(=O)c4cn(C)c(=O)n(-c5ccc(F)cc5)c4=O)cc3F)c2c2c1OCCO2` [Example 177, N-(5-fluoro-4-((5-methoxy-2,3-dihydro-[1,4]dioxino[2,3-f]quinolin-10-yl)oxy)-2-methylphenyl)-3-(4-fluorophenyl)-1-methyl-2,4-dioxo-1,2,3,4-tetrahydropyrimidine-5-carboxamide], the IC50 is ≤ 50 nM in assay [1]; ≤ 50 nM in assay [2]; < 50 nM in assay [3] (Mus musculus, BaF3).
For the compound `COCCOc1cc2nccc(Oc3ccc(NC(=O)c4c(OC)ccn(-c5ccc(F)cc5)c4=O)cc3F)c2c2c1OCCO2` [Example 35, N-(3-fluoro-4-((5-(2-methoxyethoxy)-2,3-dihydro-[1,4]dioxino[2,3-f]quinolin-10-yl)oxy)phenyl)-1-(4-fluorophenyl)-4-methoxy-2-oxo-1,2-dihydropyridine-3-carboxamide], the IC50 is ≤ 50 nM in assay [1]; ≤ 50 nM in assay [2]; < 50 nM in assay [3] (Mus musculus, BaF3).
In the case of `COCCOc1cc2nccc(Oc3cc(C)c(NC(=O)c4cn(C)c(=O)n(-c5ccc(F)cc5)c4=O)cc3F)c2c2c1OCCO2` [Example 179, N-(5-fluoro-4-((5-(2-methoxyethoxy)-2,3-dihydro-[1,4]dioxino[2,3-f]quinolin-10-yl)oxy)-2-methylphenyl)-3-(4-fluorophenyl)-1-methyl-2,4-dioxo-1,2,3,4-tetrahydropyrimidine-5-carboxamide], the IC50 in assay [1] was ≤ 50 nM; in assay [2] it was ≤ 50 nM; in assay [3] (Mus musculus, BaF3) it was < 50 nM.
As for `O=C(Nc1ccc(Oc2ccnc3cc(OCCCN4CCCCC4)c4c(c23)OCCO4)c(F)c1)c1cccn(-c2ccc(F)cc2)c1=O` [Example 31, N-(3-fluoro-4-((5-(3-(piperidin-1-yl)propoxy)-2,3-dihydro-[1,4]dioxino[2,3-f]quinolin-10-yl)oxy)phenyl)-1-(4-fluorophenyl)-2-oxo-1,2-dihydropyridine-3-carboxamide], the IC50 is ≤ 50 nM in assay [1], ≤ 50 nM in assay [2] and < 50 nM in assay [3].
